Measurements published in the supplement of paper PMC5908809.

Tests used:
[1] = tested on: normal NK cells expanded with K562-aAPC; assay: percent inhibition of viability; higher = more inhibition; conditions: 72 h, IL-2 2.5 ng/mL
Method: (§1)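 Drug sensitivity and resistance testing on K562-aAPC-expanded normal NK cells: 5 concentrations (10-fold steps over a 10,000-fold range), 72 h at 37 °C, viability by CellTiter-Glo normalised to DMSO and benzethonium chloride controls; DSS from the fitted curve.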

DERL-7 (IL-2 2.5 ng/mL) [2] = assay: as above; conditions: 72 h
IMC-1 (IL-2 20 ng/mL) [3] = assay: as above; conditions: 72 h
KAI3 (IL-2 2.5 ng/mL) [4] = assay: as above; conditions: 72 h
KHYG-1 (IL-2 2.5 ng/mL) [5] = assay: as above; conditions: 72 h
NK-92 (IL-2 2.5 ng/mL) [6] = assay: as above; conditions: 72 h
NK-YS (IL-2 2.5 ng/mL) [7] = assay: as above; conditions: 72 h
NKL (IL-2 2.5 ng/mL) [8] = assay: as above; conditions: 72 h
SNK-6 (IL-2 2.5 ng/mL) [9] = assay: as above; conditions: 72 h
YT (IL-2 2.5 ng/mL) [10] = assay: as above; conditions: 72 h
[11] = tested on: normal primary NK cells, pool 1 (3 donors) (IL-2 2.5 ng/mL); assay: as above; conditions: 72 h
[12] = tested on: normal primary NK cells, pool 1 (3 donors), resting (IL-2 0 ng/mL); assay: as above; conditions: 72 h
[13] = tested on: normal primary NK cells, pool 2 (3 donors) (IL-2 2.5 ng/mL); assay: as above; conditions: 72 h
[14] = tested on: normal primary NK cells, pool 3 (3 donors) (IL-2 2.5 ng/mL); assay: as above; conditions: 72 h
[15] = tested on: normal NK cells expanded with K562-aAPC; assay: drug sensitivity score (DSS) (DSS units); higher = more sensitive; extreme values may be limits of the assay; conditions: 72 h; IL-2 2.5 ng/mL
Method: as §1

DERL-7 (IL-2 2.5 ng/mL) [16] = assay: as above; conditions: 72 h
IMC-1 (IL-2 20 ng/mL) [17] = assay: as above; conditions: 72 h
KAI3 (IL-2 2.5 ng/mL) [18] = assay: as above; conditions: 72 h
KHYG-1 (IL-2 2.5 ng/mL) [19] = assay: as above; conditions: 72 h
NK-92 (IL-2 2.5 ng/mL) [20] = assay: as above; conditions: 72 h
NK-YS (IL-2 2.5 ng/mL) [21] = assay: as above; conditions: 72 h
NKL (IL-2 2.5 ng/mL) [22] = assay: as above; conditions: 72 h
SNK-6 (IL-2 2.5 ng/mL) [23] = assay: as above; conditions: 72 h
YT (IL-2 2.5 ng/mL) [24] = assay: as above; conditions: 72 h
[25] = tested on: normal primary NK cells, pool 1 (3 donors) (IL-2 2.5 ng/mL); assay: as above; conditions: 72 h
[26] = tested on: normal primary NK cells, pool 1 (3 donors), resting (IL-2 0 ng/mL); assay: as above; conditions: 72 h
[27] = tested on: normal primary NK cells, pool 2 (3 donors) (IL-2 2.5 ng/mL); assay: as above; conditions: 72 h
[28] = tested on: normal primary NK cells, pool 3 (3 donors) (IL-2 2.5 ng/mL); assay: as above; conditions: 72 h

COc1cc2c(cc1-c1c(C)noc1C)ncc1[nH]c(=O)n([C@H](C)c3ccccn3)c12 [I-BET151] (max concentration tested 10000 nM)
percent inhibition of viability [%]
Conditions | 1 nM | 10 nM | 100 nM | 1000 nM | 10000 nM
DERL-7 (IL-2 2.5 ng/mL) [2] | -3.21 | -1.77 | 20 | 81.5 | 100
IMC-1 (IL-2 20 ng/mL) [3] | -10.4 | -6.13 | -13.8 | 11.4 | 80.4
KAI3 (IL-2 2.5 ng/mL) [4] | -1.82 | -7.24 | -5.5 | 36.7 | 60.8
KHYG-1 (IL-2 2.5 ng/mL) [5] | -6.56 | -3.86 | 2.8 | 72 | 98.6
NK-92 (IL-2 2.5 ng/mL) [6] | -10.1 | -10.2 | -33.2 | -7 | 39.9
NK-YS (IL-2 2.5 ng/mL) [7] | -6.04 | 0.41 | 9.82 | 50.3 | 86
NKL (IL-2 2.5 ng/mL) [8] | -4.89 | -7.31 | 11.6 | 58.9 | 75
SNK-6 (IL-2 2.5 ng/mL) [9] | -9.22 | -7.3 | 19.2 | 71.4 | 58.4
YT (IL-2 2.5 ng/mL) [10] | -4.09 | -3.54 | -0.4 | 36.2 | 69.4
[1] | -4.2 | -5.61 | -3.72 | 17.1 | 70.7
[11] | 4.94 | 14.1 | 16.8 | 34.1 | 86.3
[12] | 11.1 | 15.2 | 12.9 | 26.3 | 69
[13] | -6.96 | -4.14 | 1.63 | 30.1 | 81.5
[14] | 0.13 | -4.21 | 7.82 | 12.9 | 73.7

Conditions | drug sensitivity score
DERL-7 (IL-2 2.5 ng/mL) [16] | 17.4
IMC-1 (IL-2 20 ng/mL) [17] | 6.36
KAI3 (IL-2 2.5 ng/mL) [18] | 7.74
KHYG-1 (IL-2 2.5 ng/mL) [19] | 14.1
NK-92 (IL-2 2.5 ng/mL) [20] | 1.57
NK-YS (IL-2 2.5 ng/mL) [21] | 11.1
NKL (IL-2 2.5 ng/mL) [22] | 12.4
SNK-6 (IL-2 2.5 ng/mL) [23] | 16.1
YT (IL-2 2.5 ng/mL) [24] | 8.36
[15] | 6.57
[25] | 9.37
[26] | 7.37
[27] | 8.63
[28] | 6.22

CN[C@@H]1C[C@H]2O[C@@](C)([C@@H]1OC)n1c3ccccc3c3c4c(c5c6ccccc6n2c5c31)C(=O)N[C@H]4O [UCN-01] (max concentration tested 10000 nM)
percent inhibition of viability [%]
Conditions | 1 nM | 10 nM | 100 nM | 1000 nM | 10000 nM
DERL-7 (IL-2 2.5 ng/mL) [2] | 8.29 | 22.9 | 82.2 | 101 | 101
IMC-1 (IL-2 20 ng/mL) [3] | -7.27 | -2.85 | -13.4 | 100 | 101
KAI3 (IL-2 2.5 ng/mL) [4] | 6.37 | 19.1 | 95.1 | 105 | 107
KHYG-1 (IL-2 2.5 ng/mL) [5] | 4.96 | 7.2 | 103 | 110 | 108
NK-92 (IL-2 2.5 ng/mL) [6] | -0.38 | 4.42 | 89.2 | 107 | 109
NK-YS (IL-2 2.5 ng/mL) [7] | 2.38 | 1.74 | 83.6 | 96.9 | 105
NKL (IL-2 2.5 ng/mL) [8] | -2.69 | 2.69 | 78.1 | 90.6 | 106
SNK-6 (IL-2 2.5 ng/mL) [9] | -11 | 34 | 92.7 | 100 | 101
YT (IL-2 2.5 ng/mL) [10] | 4.61 | 17.4 | 28.1 | 93 | 108
[1] | 0.67 | 13.9 | 76.9 | 100 | 101
[11] | 4.79 | 0.37 | 51.1 | 95.7 | 99.2
[12] | -5.95 | 4.23 | 23.4 | 84.6 | 92.1
[13] | -7.23 | 6.32 | 58.8 | 95.4 | 99
[14] | -5.75 | 2.95 | 40.4 | 97.2 | 101

Conditions | drug sensitivity score
DERL-7 (IL-2 2.5 ng/mL) [16] | 30.4
IMC-1 (IL-2 20 ng/mL) [17] | 17.1
KAI3 (IL-2 2.5 ng/mL) [18] | 32.4
KHYG-1 (IL-2 2.5 ng/mL) [19] | 31.8
NK-92 (IL-2 2.5 ng/mL) [20] | 29.2
NK-YS (IL-2 2.5 ng/mL) [21] | 27.8
NKL (IL-2 2.5 ng/mL) [22] | 27.4
SNK-6 (IL-2 2.5 ng/mL) [23] | 34
YT (IL-2 2.5 ng/mL) [24] | 20.2
[15] | 28.5
[25] | 23.8
[26] | 18.3
[27] | 24.8
[28] | 22.5
